PubChem BioAssay AID850 (SRMLSC, 2007)
pIC50: −log10 of the molar value. The source made the active and inactive calls. How the calls were made is not given here.

Key:
[1] = system: Saccharomyces cerevisiae growth inhibition, permissive control; assay: yeast lifespan-shortening chemical project counter-assay, dose-response inhibition of growth under permissive conditions (AID 850);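 further: growth read as optical density after one day of incubation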
[2] = as above; conditions: Saccharomyces cerevisiae growth inhibition, permissive control, measured here: maximum growth inhibition, stronger effect = higher value

Row | Compound | pIC50 [1] | inhibition ([2]; at 50 µM) | IC50 [1] | other results
1 | O=C(c1ccc(C(=O)N2CCCc3ccccc32)s1)N1CCCc2ccccc21 | 4.47 | 87% |  | 
2 | O=[N+]([O-])c1ccc(N/N=C/c2ccc[nH]2)cc1 |  | 5.41% | > 100 µM (inactive) | 
3 | Cc1ccc(-c2[nH]nc(N)c2N=Nc2ccccc2C)cc1 |  |  | > 100 µM (inactive) | inhibition ([2]; at 0.391 µM): 17.6%
4 | Oc1c(Cl)cc(Cl)c(Cl)c1Cc1c(O)c(Cl)cc(Cl)c1Cl |  |  | > 100 µM (inactive) | inhibition ([2]; at 6.25 µM): 23.3%
5 | CCOC(=O)c1c(N)sc2c(OC)c(Br)ccc12 |  |  | > 100 µM (inactive) | inhibition ([2]; at 3.125 µM): 24.4%
6 | CCOC(=O)c1sc(=S)n(-c2cc(F)ccc2F)c1N |  |  | > 100 µM (inactive) | inhibition ([2]; at 25 µM): 29.2%
7 | CCCC(=O)NC(c1cccs1)c1cc([N+](=O)[O-])c2cccnc2c1O (centres undefined) | 4.62 | 96.5% |  | 
8 | O=c1[nH]c(Nc2ccccc2)cc2ccccc12 |  | 25.9% | > 100 µM (inactive) | 
9 | COc1cc(C(=O)NC(=S)NNC(=O)c2cnccn2)cc(OC)c1OC | 4.63 | 59.3% |  | 
10 | C/C(=N\Nc1ccc(Cl)cc1)c1ccccn1 | 5.00 | 97.1% |  | 
11 | CC(C)(CNC(=S)NCCc1ccccc1)CNC(=S)NCCc1ccccc1 |  |  | > 100 µM (inactive) | inhibition ([2]; at 0.391 µM): 23.5%
12 | O=C1CSC(=S)N1c1cccnc1 |  | 14.8% | > 100 µM (inactive) | 
13 | C=CCNC(=S)N/N=C(\C)c1ccccn1 | 4.86 | 99.4% |  | 
14 | Cc1cccc(C(=O)NC(=S)NNC(=O)c2cccs2)c1 | 4.70 | 76% |  | 
15 | O=C(c1cc(-c2ccccc2O)on1)N1CCc2ccccc2C1 |  |  | > 100 µM (inactive) | inhibition ([2]; at 0.391 µM): 16.3%
16 | CC(=O)NC(=S)c1c(N)n(Cc2ccccc2)c(=O)n(C)c1=O |  |  | > 100 µM (inactive) | inhibition ([2]; at 3.125 µM): 7.99%
17 | O=C1NCCCC1C(=O)N/N=C/c1cccc(O)c1 (centres undefined) |  |  | > 100 µM (inactive) | inhibition ([2]; at 1.563 µM): 16%
18 | Cc1ccc(NC(=O)ON=C2CCCC2)cc1 | 4.82 | 99.4% |  | 
19 | CN1C(=O)C2(N=c3ccccc3=N2)c2ccccc21 |  | 21.4% | > 100 µM (inactive) | 
20 | Cc1ccc2c(c1)-c1nc3ccccc3cc1C2=NC1CCCCC1 |  | 16.8% | > 100 µM (inactive) | 
21 | COC(=O)CSC1=NS(=O)(=O)c2ccccc21 |  |  | > 100 µM (inactive) | inhibition ([2]; at 12.5 µM): 27.4%

Row | Compound | pIC50 [1] | inhibition ([2]; at 50 µM) | IC50 [1] | other results
22 | Cc1ccc(-n2c(Cl)c(Cl)nc(Cl)c2=O)cc1 | 4.85 | 102% |  | 
23 | COc1ccc2cc(C(=O)O)ccc2c1 | 4.69 | 72.1% |  | 
24 | O=S(=O)(Nc1ccc(-n2cccc2)cc1)c1ccc(Cl)cc1Cl |  |  | > 100 µM (inactive) | inhibition ([2]; at 0.391 µM): 29.9%
25 | O=C(CSc1cccc[n+]1[O-])c1cc2ccccc2o1 | 5.43 | 99.2% |  | 
26 | Cn1c(SCC(=O)Nc2ccccc2)nc(O)cc1=O | 4.48 | 76.2% |  | 
27 | CC(=O)n1cc(C(C[N+](=O)[O-])SCCN)c2ccccc21 (centres undefined) | 4.86 | 100% |  | 
28 | COc1ccc(-c2nnc3sc(C(C)N4C(=O)c5ccccc5C4=O)nn23)cc1 (centres undefined) |  |  | > 100 µM (inactive) | inhibition ([2]; at 6.25 µM): 14%
29 | CCCCC(=O)NNC(=S)NC(=O)CCC | 4.53 | 75.2% |  | 
30 | CC1=NOC(=O)/C1=C\c1ccc(-c2ccc(Cl)cc2Cl)o1 | 4.49 | 80.5% |  | 
31 | c1ccc2c(c1)oc1c(N3CCOCC3)ncnc12 |  |  | > 100 µM (inactive) | inhibition ([2]; at 25 µM): 19.7%
32 | O=C(CSC1=NS(=O)(=O)c2ccccc21)Nc1ccccc1 |  | 17.7% | > 100 µM (inactive) | 
33 | O=C(OCn1ncc(Br)c(Br)c1=O)c1ccc(F)cc1 | 5.11 |  |  | inhibition ([2]; at 12.5 µM): 78.7%
34 | COc1ccc(C(=O)C(C)(C)NO)cc1 | 4.33 | 50.7% |  | 
35 | CCOC(=O)c1cnc(-n2nc(C)cc2C)nc1NCCc1ccccc1 |  | 17.4% | > 100 µM (inactive) | 
36 | CCc1cc2c(=O)[nH]c(-c3ccccn3)nc2s1 | 4.63 | 86.2% |  | 
37 | CCn1c(=O)c(C(=O)Nn2c(C)nc3ccccc3c2=O)c(O)c2ccccc21 | 4.87 |  |  | inhibition ([2]; at 25 µM): 99%
38 | NC(N)=N/N=C/c1ccc(OCc2ccc(Cl)cc2Cl)cc1 | 4.55 | 101% |  | 
39 | Cc1ccc(C)c(-n2nnnc2SCC(=O)Nc2cccc(-c3nnc4n3CCCCC4)c2)c1 |  | 17.5% | > 100 µM (inactive) | 
40 | CC(C)(C)c1cc(C(c2cccnc2)N2CCN(CCO)CC2)cc(C(C)(C)C)c1O (centres undefined) | 4.31 | 53.3% |  | 
41 | Oc1ccc(/C=N/N=C(c2ccccc2)c2ccccc2)c(O)c1O | 4.52 | 79.8% |  | 
42 | CCC(C)NC(=O)C1CCN(S(=O)(=O)c2cccc3cccnc23)CC1 (centres undefined) |  | 12.2% | > 100 µM (inactive) | 

Row | Compound | pIC50 [1] | inhibition ([2]; at 50 µM) | IC50 [1] | other results
43 | Cn1c(SCC(=O)N/N=C/c2ccc([N+](=O)[O-])s2)nnc1-c1ccc(Cl)cc1 | 4.53 | 99.2% |  | 
44 | O=S(=O)(NC1CC2CCC1C2)c1ccc(Br)s1 (centres undefined) | 5.89 |  |  | inhibition ([2]; at 12.5 µM): 99%
45 | O=c1c2ccccc2nc2c3ccccc3c3nncn3n12 |  |  | > 100 µM (inactive) | inhibition ([2]; at 6.25 µM): 5.16%
46 | Cc1cccc(C(=O)O/N=C/c2c(N3CCOCC3)n(C)c3ccccc23)c1 | 4.30 | 48.1% |  | 
47 | Cc1c(N=Cc2cc(Br)cc(Br)c2O)cccc1C(=O)O | 5.16 | 99% |  | 
48 | COC(=O)CSCc1nc2ccccc2[nH]c1=O |  |  | > 100 µM (inactive) | inhibition ([2]; at 1.563 µM): 20.2%
49 | CC1=C(C)/C(=N\OS(=O)(=O)c2ccccc2)C=CC1=O | 5.21 | 99% |  | 
50 | Cc1nc(Nc2ccc(Cl)c(Cl)c2)sc1C(=O)Nc1ccccc1 |  | 15.6% | > 100 µM (inactive) | 
51 | N/C(Cc1ccc(Cl)cc1)=N\OC(=O)c1ccccc1 | 4.53 | 98% |  | 
52 | C=CCn1c(C)cc(C(=O)CSc2nnc(NCc3ccccc3)s2)c1C |  | 22.4% | > 100 µM (inactive) | 
53 | N/C(Cc1ccc(Cl)c(Cl)c1)=N\OC(=O)c1cccs1 |  |  | > 100 µM (inactive) | inhibition ([2]; at 0.195 µM): 4.64%
54 | COc1ccccc1OCCN1CSC(=S)N(C)C1 | 4.77 | 82.4% |  | 
55 | O=C(Oc1csc(=S)n1C(=O)c1ccccc1)c1ccccc1 |  |  | > 100 µM (inactive) | inhibition ([2]; at 12.5 µM): 11.4%
56 | COc1ccccc1OCC(=O)n1cc(C(=O)c2cc(Cl)cc(Cl)c2O)cn1 | 5.33 | 100% |  | 
57 | Nc1ccc(O)c2c1C(=O)c1ccccc1C2=O |  |  | > 100 µM (inactive) | inhibition ([2]; at 25 µM): 16.4%
58 | O=C(C1=C(O)/C(=C/c2ccc(O)cc2)CCC1)C(F)(F)F |  |  | > 100 µM (inactive) | inhibition ([2]; at 0.195 µM): 7.72%
59 | O=C(COc1ccc(Cl)cc1)NC1=NN(c2ccccc2)C(=O)C1 |  |  | > 100 µM (inactive) | inhibition ([2]; at 6.25 µM): 14.6%
60 | CC(C)c1ccc2c(c1)C1(NN=C(c3ccccc3)S1)C(=O)N2 (centres undefined) | 4.31 | 49.5% |  | 
61 | COCCN1CSC(=S)N(Cc2ccco2)C1 | 4.46 | 64.7% |  | 
62 | CC12C(=O)N(c3cccc4cccnc34)C(=O)C1C1C=CC2C1 (centres undefined) |  |  | > 100 µM (inactive) | inhibition ([2]; at 0.781 µM): 13.8%
63 | CCc1ccc2c(c1)C1(NN=C(c3ccccc3)S1)C(=O)N2 (centres undefined) | 4.56 | 97.5% |  | 

Row | Compound | pIC50 [1] | inhibition ([2]; at 50 µM) | IC50 [1] | other results
64 | O=C(c1ccccc1)c1ccc2nc(N3CCCCC3)c3nncn3c2c1 |  |  | > 100 µM (inactive) | inhibition ([2]; at 0.195 µM): 14.9%
65 | CCOc1ccccc1C1CC(c2ccc(Br)cc2)Nc2nc(N)nn21 (centres undefined) |  |  | > 100 µM (inactive) | inhibition ([2]; at 0.781 µM): 10.2%
66 | O=C(/C=C/c1ccccc1Cl)c1ccccc(=O)c1O | 4.94 | 101% |  | 
67 | NNC(=O)c1ccc(COc2cccc3ccccc23)cc1 | 4.70 | 94.7% |  | 
68 | Cc1ncc(CC(=O)n2cc(C(=O)c3cc(Cl)ccc3O)cn2)s1 | 5.27 | 100% |  | 
69 | COc1ccccc1N1CCN(Cc2cc(Br)c(O)c3ncccc23)CC1 | 4.90 | 99.6% |  | 
70 | CC(C)(C)C(=O)O/N=C1/C(=O)N(c2ccccc2)c2ccccc21 | 4.37 |  |  | inhibition ([2]; at 25 µM): 52.3%
71 | Cc1cc(C)c2c(N=NN3CCOCC3)[nH]nc2n1 |  | 5.41% | > 100 µM (inactive) | 
72 | Oc1cccc(/C=N/NC(=S)Nc2cccnc2)c1O |  |  | > 100 µM (inactive) | inhibition ([2]; at 0.781 µM): 7.13%
73 | CC(=O)NC(c1cccs1)c1cc([N+](=O)[O-])c2cccnc2c1O (centres undefined) |  | 17.1% | > 100 µM (inactive) | 
74 | CCOC(=O)c1cnc(-n2nc(C)cc2C)nc1NC1CCCCC1 | 4.37 | 57.5% |  | 
75 | CCCCS(=O)(=O)/C=C\C=C/S(=O)(=O)CCCC |  |  | > 100 µM (inactive) | inhibition ([2]; at 6.25 µM): 21.2%
76 | CCN(CC)c1ccc(S(=O)(=O)N2CCOCC2)cc1NC(=O)CSc1cccc[n+]1[O-] | 4.60 | 96.5% |  | 
77 | OC(CNCCC1C=Nc2ccccc21)Cn1c2ccc(Cl)cc2c2cc(Cl)ccc21 (centres undefined) | 4.73 | 100% |  | 
78 | O=C(N/N=C/c1cc2c3c(c1O)CCCN3CCC2)c1ccccc1O | 4.32 | 49.5% |  | 
79 | COc1ccc(C(=O)/C=C/Nc2ccc(C)cn2)cc1OC |  |  | > 100 µM (inactive) | inhibition ([2]; at 1.563 µM): 14.8%
80 | COc1cc(/C=C2\C(=O)ON=C2c2ccccc2)cc(OC)c1OC |  |  | > 100 µM (inactive) | inhibition ([2]; at 0.781 µM): -2.57%
81 | COc1ccc(C(=O)NC(=S)NNC(=O)c2cnccn2)cc1OC | 4.33 |  |  | inhibition ([2]; at 25 µM): 47.1%
82 | OC(COc1ccc2ccccc2c1Br)Cn1cnc(-c2ccccc2)c1 (centres undefined) |  | 20.9% | > 100 µM (inactive) | 
